The target of the experiment is T1, mitochondrial electron transport chain complex I (ETCC1), NADH ubiquinone oxidoreductase (Bos taurus, UniProt P03887+P17694+P42026).
T1 construct: gene MT-ND1

`C=C(C)[C@@H]1C[C@@]2(C)C(=CC1=O)CC[C@@H](OC(=O)/C(C)=C\C)[C@@H]2C` [PT, petasin] returned an IC50 of 3.55 µM.

(Values after publication PMC8409585 (The Journal of Clinical Investigation, 2021).)
